Data from article PMC8703884, “Synthesis and Biological Evaluation of S-, O- and Se-Containing Dispirooxindoles” (Molecules, 2021).
One block for each compound: values may come before it.

What was measured:
[1] = tested on: A549 human lung adenocarcinoma epithelial cell line; experiment: MTT cytotoxicity test, A549; type: cell-based; conditions: 72 h incubation
[2] = tested on: HCT116^+/+ human colon cancer cells (p53 positive); experiment: MTT cytotoxicity test, HCT116 p53+/+; conditions: for CC50: Homo sapiens, HCT-116, read-out: CC50, HCT^+/+; for selectivity S against HCT116^+/+ over HCT116^−/−: ratio of CC50 values of the cell line pair
Description: (§1) The used models included human prostate cancer cell lines LNCaP and PC3, breast cancer cell line (MCF-7), human colon cancer cells (HCT116^+/+, p53 positive, p53^+/+ and HCT116^−/−, p53 negative, p53^−/−), human lung adenocarcinoma epithelial cell line (A549), SV40-transformed normal human lung fibroblast cells (VA13), as well as human embryonic kidney 293 cells (Hek293) stably expressing SV40 large T antigen (Hek293T). The cytotoxicity of the evaluated molecules was properly assessed using a MTT assay based on the modified approach reported by Ferrari and colleagues.
(§2) To further elucidate the dominant mode of action, we used HCT116^+/+ and HCT116^−/− cells by analogy with the paper published by Shangary and colleagues. This isogenic cell line is commonly applied to investigate the p53/MDM2-dependent mode of action.
(§3) MTT test. The MTT assay was carried out according to [35] with few modifications; 3000 Cells (for HEK293T, A549 and MCF7cell lines) or 4000 cells (for VA13 cell line) were seeded in each well of a 96-well plate. […] Assays were performed in triplicates. […] The MTT solution was then discarded and 140 µL of DMSO was added. The plates were swayed on a shaker (60 rpm) to solubilize the formazan. […] The analysis of cytotoxicity and the estimation of IC50 values were carried out with the built-in functions in the GraphPad Prism program (GraphPad Software, Inc., San Diego, CA) P53 activation.

[3] = tested on: HCT116^−/− human colon cancer cells (p53 negative); experiment: MTT cytotoxicity test, HCT116 p53-/-; conditions: HCT-116, read-out: CC50, HCT^−/−
Description: as §1, §2, §3

[4] = MTT cytotoxicity test, Hek293T; type: cell-based; conditions: human, 72 h incubation
[5] = tested on: MCF7 breast cancer cell line; experiment: MTT cytotoxicity test, MCF7; type: cell-based; conditions: Homo sapiens, 72 h incubation
Method: (§4) MTT test. […] Assays were performed in triplicates.

[6] = MTT cytotoxicity test, VA13; type: cell-based; conditions: human, VA13 SV40-transformed normal lung fibroblast cells, 72 h incubation
Method: as §4

[7] = tested on: LNCaP human prostate cancer cell line; experiment: MTT cytotoxicity test, LNCaP; type: cell-based; conditions: for CC50: Homo sapiens, LNCaP, read-out: CC50, LNCaP; for selectivity index S for LNCaP/PC3 cells: ratio of CC50 values of the cell line pair
[8] = tested on: PC3 human prostate cancer cell line; experiment: MTT cytotoxicity test, PC3; type: cell-based; conditions: for CC50: Homo sapiens

Compound: CCOc1ccc(N2C(=O)C3(CN(C)CC34C(=O)Nc3ccccc34)NC2=S)cc1 (stereo not drawn) [Compound 4g, 1′-Methyl-1-(4-ethoxyphenyl)-2-thioxodispiro[imidazolidine-4,3′-pyrrolidine-4′,3″-indoline]-2″,5-dione]
melting point: 240 to 241 °C
CC50 [1]: 38.2 ± 11.5 µM
CC50 [2]: > 100 µM
CC50 [3]: > 100 µM
CC50 at 72 h [4]: 30.2 ± 8.2 µM
CC50 [5]: 75.2 ± 29.3 µM
CC50 at 72 h [6]: 73.6 ± 23.4 µM
CC50 ([7]; MTT test): > 100 µM
CC50 [8]: > 100 µM

Compound: Cc1ccc(N2C(=O)C3(CN(C)CC34C(=O)Nc3ccc(Cl)cc34)NC2=S)cc1 (stereo not drawn) [Compound 4j, 5″-Chloro-1′-methyl-1-(p-tolyl)-2-thioxodispiro[imidazolidine-4,3′-pyrrolidine-4′,3″-indoline]-2″,5-dione]
melting point: 159 to 160 °C
CC50 [1]: 62 ± 8.3 µM
CC50 [2]: > 100 µM
CC50 [3]: > 100 µM
CC50 at 72 h [4]: 17.4 ± 2 µM
CC50 [5]: 13.7 ± 2.1 µM
CC50 at 72 h [6]: 27.2 ± 5.3 µM
CC50 ([7]; MTT test): > 100 µM
CC50 [8]: > 100 µM

Compound: CCOc1ccc(N2C(=O)C3(CN(C)CC34C(=O)Nc3ccc(Cl)cc34)NC2=S)cc1 (stereo not drawn) [Compound 4h, 5″-Chloro-1′-methyl-1-(4-ethoxyphenyl)-2-thioxodispiro[imidazolidine-4,3′-pyrrolidine-4′,3″-indoline]-2″,5-dione]
melting point: 268 to 271 °C
CC50 [1]: 6.2 ± 2.1 µM
CC50 [2]: > 100 µM
CC50 [3]: > 100 µM
CC50 at 72 h [4]: 6.7 ± 0.9 µM
CC50 [5]: 8.5 ± 1.2 µM
CC50 at 72 h [6]: 6.3 ± 1.1 µM
CC50 ([7]; MTT test): > 100 µM
CC50, LNCaP ([7]; MTT test): no activity at all
CC50, PC3 [8]: no activity at all
CC50 [8]: > 100 µM

Compound: CN1CC2(NC(=S)N(Cc3ccccc3)C2=O)C2(C1)C(=O)Nc1ccccc12 (stereo not drawn) [Compound 4a, 1′-Methyl-1-benzyl-2-thioxodispiro[imidazolidine-4,3′-pyrrolidine-4′,3″-indoline]-2″,5-dione]
melting point: 189 to 190 °C
CC50 [1]: 20.3 ± 3.7 µM
CC50 [2]: 66.2 ± 11.7 µM
CC50 [3]: 40.1 ± 19.1 µM
CC50 at 72 h [4]: 9.8 ± 1.6 µM
CC50 [5]: 31.3 ± 6.7 µM
CC50 at 72 h [6]: 16.1 ± 2.5 µM
CC50 ([7]; MTT test): 12.5 ± 2.1 µM
selectivity on LNCaP cells over PC3 cells ([7]; MTT test): moderate selectivity
CC50 [8]: 30.1 ± 9.1 µM

Compound: COc1ccc(N2C(=O)C3(CN(C)CC34C(=O)Nc3ccccc34)NC2=S)cc1 (stereo not drawn) [Compound 4e, 1′-Methyl-1-(4-methoxyphenyl)-2-thioxodispiro[imidazolidine-4,3′-pyrrolidine-4′,3″-indoline]-2″,5-dione]
melting point: 155 to 156 °C
CC50 [1]: 18.9 ± 3.1 µM
CC50 [2]: 27.9 ± 6.94 µM
CC50 [3]: 36 ± 12.6 µM
CC50 at 72 h [4]: 6.5 ± 0.9 µM
CC50 [5]: 22.8 ± 5.6 µM
CC50 at 72 h [6]: 13.2 ± 2.3 µM
CC50 ([7]; MTT test): 3.45 ± 0.45 µM
selectivity index S for LNCaP/PC3 cells [7]: > 30
CC50 [8]: > 100 µM

More lines, main results first:

melting point: 177 to 180 °C
Compound: CN1CC2(NC(=S)N(c3ccc(F)c(Cl)c3)C2=O)C2(C1)C(=O)Nc1ccc(Cl)cc12 (stereo not drawn) [Compound 4r, 5″-Chloro-1′-methyl-1-(3-chloro-4-fluorophenyl)-2-thioxodispiro[imidazolidine-4,3′-pyrrolidine-4′,3″-indoline]-2″,5-dione]
CC50 [1]: 14.1 ± 1.8 µM
CC50 [2]: > 100 µM
CC50 [3]: > 100 µM
CC50 at 72 h [4]: 11.1 ± 1.3 µM
CC50 [5]: 14.1 ± 1.2 µM
CC50 at 72 h [6]: 13.9 ± 1.5 µM
CC50 ([7]; MTT test): > 100 µM
CC50, LNCaP ([7]; MTT test): absolutely inactive
CC50, PC3 [8]: absolutely inactive
CC50 [8]: > 100 µM

melting point: 273 to 274 °C
Compound: CN1CC2(NC(=S)N(c3ccccc3)C2=O)C2(C1)C(=O)Nc1ccccc12 (stereo not drawn) [Compound 4w, 1′-Methyl-1-phenyl-2-thioxodispiro[imidazolidine-4,3′-pyrrolidine-4′,3″-indoline]-2″,5-dione]
CC50 [1]: > 100 µM
CC50 [2]: 54.7 ± 9.5 µM
selectivity S against HCT116^+/+ over HCT116^−/− [2]: > 4.8
CC50 [3]: > 100 µM
CC50 at 72 h [4]: 75.1 ± 8.6 µM
CC50 [5]: 57.9 ± 17.1 µM
CC50 at 72 h [6]: 94.1 ± 19.7 µM
CC50 ([7]; MTT test): 9.8 ± 1.8 µM
selectivity index S for LNCaP/PC3 cells [7]: 5.3
CC50 [8]: 52.2 ± 11.6 µM

melting point: 252 to 254 °C
Compound: CN1CC2(NC(=S)N(c3ccc(F)c(Cl)c3)C2=O)C2(C1)C(=O)Nc1ccccc12 (stereo not drawn) [Compound 4q, 1′-Methyl-1-(3-chloro-4-fluorophenyl)-2-thioxodispiro[imidazolidine-4,3′-pyrrolidine-4′,3″-indoline]-2″,5-dione]
CC50 [1]: > 100 µM
CC50 [2]: > 100 µM
CC50 [3]: > 100 µM
CC50 at 72 h [4]: 69.1 ± 21 µM
CC50 [5]: 62.2 ± 27.7 µM
CC50 at 72 h [6]: 57.9 ± 18.3 µM
CC50 ([7]; MTT test): > 100 µM
CC50 [8]: > 100 µM

melting point: 261 to 262 °C
Compound: CN1CC2(NC(=S)N(Cc3cccc(Cl)c3)C2=O)C2(C1)C(=O)Nc1ccc(Cl)cc12 (stereo not drawn) [Compound 4p, 5″-Chloro-1′-methyl-1-(3-chlorobenzyl)-2-thioxodispiro[imidazolidine-4,3′-pyrrolidine-4′,3″-indoline]-2″,5-dione]
CC50 [1]: 11.3 ± 2.4 µM
CC50 [2]: 34.2 ± 5.7 µM
selectivity S against HCT116^+/+ over HCT116^−/− [2]: > 2.9
CC50 [3]: > 100 µM
CC50 at 72 h [4]: 18.4 ± 1.7 µM
CC50 [5]: 6.6 ± 1 µM
CC50 at 72 h [6]: 12.3 ± 1.6 µM
CC50 ([7]; MTT test): 4.1 ± 0.1 µM
CC50 [8]: 2.2 ± 1.4 µM

melting point: 239 to 240 °C
Compound: CN1CC2(NC(=S)N(c3ccc(Cl)cc3)C2=O)C2(C1)C(=O)Nc1ccc(Cl)cc12 (stereo not drawn) [Compound 4l, 5″-Chloro-1′-methyl-1-(4-chlorophenyl)-2-thioxodispiro[imidazolidine-4,3′-pyrrolidine-4′,3″-indoline]-2″,5-dione]
CC50 [1]: 37 ± 6.5 µM
CC50 [2]: 42.5 ± 9.1 µM
CC50 [3]: 57.1 ± 5.76 µM
CC50 at 72 h [4]: 34 ± 3.4 µM
CC50 [5]: 19.1 ± 4.1 µM
CC50 at 72 h [6]: 30.4 ± 3 µM
CC50 ([7]; MTT test): 4.4 ± 0.67 µM
CC50 [8]: 2.2 ± 0.7 µM

melting point: 273 to 274 °C
Compound: CN1CC2(NC(=S)N(c3ccc(F)cc3)C2=O)C2(C1)C(=O)Nc1ccccc12 (stereo not drawn) [Compound 4m, 1′-Methyl-1-(4-fluorophenyl)-2-thioxodispiro[imidazolidine-4,3′-pyrrolidine-4′,3″-indoline]-2″,5-dione]
CC50 [1]: > 100 µM
CC50 [2]: 23.3 ± 3.3 µM
CC50 [3]: 42.4 ± 4.7 µM
CC50 at 72 h [4]: > 100 µM
CC50 [5]: 106 ± 43.1 µM
CC50 at 72 h [6]: 171 ± 15.8 µM
CC50 ([7]; MTT test): 3.4 ± 0.7 µM
CC50 [8]: 1.93 ± 0.91 µM

melting point: 275 to 276 °C
Compound: CN1CC2(NC(=S)N(C3CC3)C2=O)C2(C1)C(=O)Nc1ccc(Cl)cc12 (stereo not drawn) [Compound 4t, 5″-Chloro-1′-methyl-1-cyclopropyl-2-thioxodispiro[imidazolidine-4,3′-pyrrolidine-4′,3″-indoline]-2″,5-dione]
CC50 [1]: > 100 µM
CC50 [2]: > 100 µM
CC50 [3]: > 100 µM
CC50 at 72 h [4]: > 100 µM
CC50 [5]: > 100 µM
CC50 at 72 h [6]: > 100 µM
CC50 ([7]; MTT test): > 100 µM
CC50 [8]: > 100 µM
